How the values were obtained:
[1] = test system: HT1080 and HT1080 6TG cells; assay: γH2AX and ZNF827 foci by immunofluorescence; conditions: topotecan 2 μg/mL 24 hr vs unchallenged
[2] = test system: U-2 OS cells; assay: RPA foci by immunofluorescence in U-2 OS cells; assay type: cell-based
Method: Topotecan and aphidicolin were used in this study. For experiments where they were used to cause replication stress and DNA damage, cells were treated with topotecan 2 μg/mL for either 1 hour or 24 hours, or aphidicolin 1 μM for 20 hours. For replication fork stalling induction in the PCNA colocalisation experiments, cells were treated with aphidicolin 0.4 μM for 6-8 hours. Topotecan and aphidicolin were dissolved in DMSO. DMSO was used as a control.
Cells were transfected using Lipofectamine RNAiMAX transfection reagent (ThermoFisher Scientific) with an siRNA concentration of […]. For transfection in a 75 cm^2flask, 3 mL reduced serum medium Opti-MEM (Gibco) was combined with 15 μL of 20 μM siRNA, mixed gently to cover the surface area of the flask and incubated at room temperature for 5 minutes. 30 μL of Lipofectamine RNAiMAX transfection reagent was then added to the mixture, and mixed and incubated for a further 15 minutes at room temperature. Meanwhile, cells to be transfected were trypsinised, resuspended in DMEM supplemented with 10% FCS, and counted using a Beckman Coulter cell counter. 0.8-1×10^6 cells in DMEM supplemented with 10% FCS were directly pipetted onto the transfection mixture in the flask, and shaken gently to mix. Additional DMEM supplemented with 10% FCS was added to the flask up to a total volume of 15 mL. Cells were harvested 72 hours post-transfection for knockdown validation and subsequent experiments.
Cells cultured on coverslips were fixed in 2% paraformaldehyde in PBS at room temperature for 10 minutes. Cells fixed on coverslips were rinsed with deionised water, and then permeabilised using KCM buffer (120 mM potassium chloride, 20 mM NaCl, 10 mM Tris, pH 7.5, 0.1% Triton X-100) at room temperature for 10 minutes. Coverslips were blocked with antibody diluent buffer (ABDIL—20 mM Tris-Cl, pH 7.5, 2% BSA, 0.2% fish gelatine, 150 mM NaCl, 0.1% Triton X-100, 0.1% sodium azide) containing 100 μg/mL RNase A at room temperature for one hour. […] Quantitated analysis was conducted by automation with CellProfiler (Broad Institute).

[3] = test system: HT1080 cells; assay: Cell cycle analysis by flow cytometry (propidium iodide); assay type: cell-based
Method: For cell cycle analysis, cells were trypsinised, counted and collected by centrifugation at 1000 rpm for 5 minutes. 1×10^6 cells were resuspended in 0.5 mL PBS, then fixed in 5 mL of ice-cold 70% ethanol drop by drop whilst being gently vortexed. The cells were incubated on ice for 30 minutes then stored at −20° C. for 2-7 days until propidium iodide staining. Prior to propidium iodide (Sigma) staining, the ethanol fixed cells were centrifuged at 300×g for 6 minutes to remove ethanol, washed once with PBS, and resuspended in 0.5 mL PBS per 1×10^6 cells. The fixed cells were treated with 0.5 mg of RNase (Sigma) and 25 μg of propidium iodide at 37° C. for 30 minutes, and then allowed to return to room temperature in the dark for 10 minutes. Labelled cells were analysed using the BD FACSCanto Flow Cytometer (BD Biosciences) containing a blue air cooled 488 nm argon laser to excite propidium iodide. Between 10 000-15 000 events were collected at an approximate flow rate of 200 events/second. The forward scatter (FSC, size) and side scatter (SSC, internal granularity) of each cell was recorded. To discriminate and eliminate cell debris and doublets, the pulse area (FL2-A) was plotted against the pulse width (FL2-W). Doublets identified as cells with 4N DNA content and increasing pulse width were eliminated. A histogram displaying the cell counts against the FL2-A was used to calculate the percentage of cells in each cell cycle phase, as well as the percentage of non-viable cells. Data analysis was conducted using BD FACS Diva software (BD Bioscience).

[4] = test system: ATR-CHK1 pathway; assay: Western blot of pCHK1, pRPA32 and p21 after ZNF827 knockdown, topotecan and/or ATR inhibitor; assay type: cell-based
Method: Protein was extracted from 10^6 cells per sample by vigorous pipetting and incubation at room temperature for 30 minutes in 100 μL of EDTA-free 4× LDS buffer (106 mM Tris-Cl, 141 mM Tris-Base, 40% Glycerol, 2% LDS, 0.075% SERVA Blue G50) supplemented with 2.5% Benzonase® nuclease 25 U/μL (Novagen, Merck Millipore) and 2% beta-mercaptoethanol (Sigma). Following protein extraction, all samples were denatured at 90° C. for 15 minutes before resolving on NuPAGE® Novex® 4-12% Bis-Tris Mini Gels (Invitrogen) with 1×10^5 cells (10 μL) loaded per lane in NuPAGE® MES SDS running buffer (Invitrogen) at 200 V for 50 minutes. Gels were transferred onto a PVDF membrane (Immobilon-P, Millipore) in transfer buffer (190 mM glycine, 25 mM Tris and 10% methanol) at 100 V for 60 minutes. Membranes were stained with Ponceau-S for 30 minutes, de-stained then blocked for 1 hour at room temperature in 5% skim milk dissolved in PBS with 0.1% Tween-20 (PBST) or TBS with 0.1% Tween-20 (TBST) for phosphorylated proteins. Membranes were cut into appropriate segments based on the size markers, with each segment incubated with antibodies for proteins of interest diluted in 0.5% skim milk in PBST/TBST or 5% BSA overnight at 4° C. (Refer to Table 4 for the list of antibodies). Blots were then washed for 3×5 minutes in PBST/TBST followed by incubation for 1 hour at room temperature with appropriate secondary antibodies (See Table 5) diluted 1:5000 in 0.5% skim milk or 5% BSA in PBST/TBST. Blots were washed for 3×5 minutes in PBST/TBST before incubation with SuperSignal West Pico Chemiluminescent Substrate (ThermoFisher Scientific) for 5 minutes at room temperature. Blots were then exposed to a Luminescent Image Analyser (LAS-4000, Fujifilm).

[5] = agent alone (topotecan 2 μg/mL 24 hr, or 72 hr siRNA knockdown in unchallenged cells)
[6] = agent alone (topotecan 2 μg/mL 1 hr, or 72 hr siRNA knockdown in unchallenged cells)

For `CC[C@@]1(O)C(=O)OCc2c1cc1n(c2=O)Cc2cc3c(CN(C)C)c(O)ccc3nc2-1` [topotecan], the ZNF827 foci induction [1] was “striking induction of ZNF827”, the γH2AX foci induction [1] was “efficiently induced γH2AX foci” and the “total nuclear RPA foci” value [2, 5] was “greatly induced RPA foci”. The cell cycle profile [3, 6] was “distinct G2/M arrest”.
With “siZNF827: Stealth RNAi siRNA ZNF827HSS135819 duplex oligoribonucleotides (Invitrogen), SEQ ID NO: 12 and 13 (chain 1 GGGCAGUCUUCUGGCUGAGAAAUCA; chain 2 UGAUUUCUCAGCCAGAAGACUGCCC; listed as RNA, further chemistry not given here)” the “phosphorylation of CHK1 S345 and RPA32 S33 compared with ATR inhibitors” value ([4]; ZNF827 knockdown versus ATR inhibitors VE-821 and AZ20) was “greater reduction in phosphorylation of CHK1 S345 and RPA32 S33 than ATR inhibitors”, the “phosphorylation of CHK1 S345 and RPA S33” value ([4]; ZNF827 knockdown, topotecan treatment) was “substantially suppressed” and the p21 level ([4]; unchallenged ZNF827-depleted cells, compared with topotecan-treated cells) was “upregulated”. For the same molecule, the “total nuclear RPA foci” value ([2]; 72 hr siRNA knockdown of ZNF827 in topotecan-treated cells (2 μg/mL, 24 hr)) was “did not cause an observable increase in overall RPA foci”, the “total nuclear RPA foci” value [2, 5] was “substantially increased the total number of nuclear RPA foci” and the cell cycle profile ([3]; 72 hr siRNA knockdown in conjunction with topotecan 2 μg/mL 1 hr) was “conspicuous G1 arrest while reducing the G2/M arrest”. For the same molecule, the cell cycle profile [3, 6] was “subtle increase in S phase cells accompanied by a reduction in G2/M cells”.

Reference: patent US20220305003A1, “METHODS OF TREATING CANCER WITH AN INHIBITOR OF ZNF827” (CHILDREN'S MEDICAL RESEARCH INSTITUTE, priority 2019, published 2022)
